A melting point compilation (Tetko et al.; mined from patent text by program, amines drawn as free bases though some values may be those of a salt)

Row | Compound | melting point
1 | N=C(N)c1ccc(C(=O)NCCCC(=O)NCCC(=O)O)cc1 | > 250 °C
2 | COc1ccc(S(=O)(=O)c2ccc3cc(Br)ccc3c2)cc1 | 180 to 181 °C
3 | CC(C(=O)O)c1ccc(CC(C)C(C)O)cc1 (stereo not drawn) | 85 to 88 °C
4 | O=[N+]([O-])c1ccc(-c2n[nH]c3c2Cc2ccccc2-3)cc1 | 267 to 270 °C
5 | NCC(F)(F)C(F)(F)C(F)(F)C(F)(F)CN | 44 to 45 °C
6 | COc1ccccc1OCC(O)CN1CCC2(CC1)CNC(=O)O2 (stereo not drawn) | 124 to 125 °C
7 | O=S(=O)(Nc1ccc2c(OCc3ccc(-c4ccc(F)cc4)cc3F)cccc2c1)C(F)(F)F | 134 to 136 °C
8 | CN1C(=O)CN(c2ccc(F)cc2)NC1=O | 205 to 206 °C
9 | CCN(CC)CCCC(=O)c1ccc2c(c1)Cc1cc(C(=O)CCCN(CC)CC)ccc1-2 | 79 to 81 °C
10 | CCCCCN(CCC12CC3CC(CC(C3)C1)C2)C(=O)NCCc1ccc(O)cc1 | 96.3 to 99.4 °C
11 | CC(C)(C)NC(=O)c1nn(-c2ccc(Br)cc2)c2c1[C@@H]1CC[C@H]2C1 | 148 to 149 °C
12 | COc1ccc(-c2ccc(C(=O)NN)cc2)cc1OC1CCCC1 | 167 to 168 °C
13 | O=C1C(c2ccccc2)=C(c2ccccc2)C(=O)N1c1cccc(Cl)c1 | 144 to 145 °C
14 | COc1cc(NC(=O)OC(C)(C)C)cc2c1nc(C(F)F)n2-c1nc(N2CCOCC2)nc(N2CCN(S(=O)(=O)CCN(C)C)CC2)n1 | 200 to 202 °C
15 | Cc1ccc(S(=O)(=O)OCC2Cc3cc(Cl)cc(-c4ccccc4)c3O2)cc1 (stereo not drawn) | 127 to 130 °C
16 | O=C1N=C2C(=O)SC=C2N1 | 177 to 180 °C
17 | COc1ccc(-c2nc(CN(c3ccccc3)c3ccccc3)nc3cc(OC)c(OC)cc23)cc1OC | 215 to 216 °C
18 | O=C1CCCCN1Cc1ccc[nH]1 | 106 °C
19 | COCOc1cc(C(=O)O)ccc1-c1ccc(-c2ccccc2)c(-c2ccc3c(c2)C(C)(C)CCC3(C)C)c1 | 122 °C
20 | CCN1C(=O)C(C)(C)N=C(c2ccccc2F)c2cc([N+](=O)[O-])cc(Cl)c21 | 156 °C
21 | OCc1ccc(-c2ccc(-c3cn([C@H]4CN5CCC4CC5)nn3)s2)cc1 | 253 °C

Row | Compound | melting point
22 | O=C(NC(=O)N1CCC(Oc2ccc(Cl)cc2)CC1)c1ccc(O)cc1 | 189 °C
23 | COC(=O)c1cccc(Oc2cccc(-c3nn(Cc4ccc(C(F)(F)P(=O)(O)O)c(F)c4)c(=Nc4ccc(Cl)c(Cl)c4)s3)c2)c1 | 137 to 139 °C
24 | COc1cccc2c1nc(C(F)F)n2-c1nc(N2CCOCC2)nc(N2CCN(S(=O)(=O)C(F)(F)F)CC2)n1 | 272 to 273 °C
25 | CN1CCCN(C(=O)c2ccc3n2Cc2ccccc2N(C(=O)c2ccc(C4CCCCC4)cc2)C3)CC1 | 133 to 136 °C
26 | CN1CCN(c2n[nH]c(-c3ccc(I)cc3)c2-c2ccncc2)CC1 | 265 to 266 °C
27 | CC(=O)OC1CCC2(C)C3CCC4(C)C(C(C)CCCC(C)(C)O)CCC4C3CCC2(O)C1 (stereo not drawn) | 180 to 182 °C
28 | CNC(=O)n1c(=O)n(CCCN2CCN(C(c3ccccc3)c3ccccc3)CC2)c2ccccc21 | 153 °C
29 | Cc1cc(-n2nc(C(F)(F)F)cc2-c2ccc(S(C)(=O)=O)cc2)ccc1Br | 127 to 129 °C
30 | CC(NC(=O)c1ccc(NC(=O)c2ccccc2SSc2ccccc2C(=O)Nc2ccc(C(=O)NC(C)C(=O)O)cc2)cc1)C(=O)O (stereo not drawn) | 265 °C
31 | COc1ccc2c(C3CCN(CCCn4c(=O)[nH]c5ccccc54)CC3)noc2c1 | 176 to 178 °C
32 | CN(C)S(=O)(=O)Nc1cc(C(=O)c2ccccc2)ccc1N | 147 to 149 °C
33 | N#CC(=CC=Cc1ccccc1)C(=O)O | 196 °C
34 | Cc1oc(-c2ccccc2)nc1CCOc1ccc(COc2ccccc2CC(=O)O)cc1 | 141 to 142 °C
35 | C[C@H](NC(=O)c1c(N)cccc1F)C(=O)O | 194 to 198 °C
36 | CC(O)c1cn(C2CCc3c(F)cc(F)cc3C2)c(=S)[nH]1 (stereo not drawn) | 210 to 211 °C
37 | CCCCNS(=O)(=O)CC(=O)[C@@H]1OC(C)(C)N(C(=O)OC(C)(C)C)[C@H]1CC1CCCCC1 | 70 to 73 °C
38 | Cc1nc(NCc2ccccc2)sc1-c1ccnc(Nc2ccc(N3CCOCC3)cc2)n1 | 180 to 183 °C
39 | Cn1cc(-c2cccc(Br)c2)c(=O)c(-c2cccc(C(F)(F)F)c2)c1 | 151 to 153 °C
40 | CN1CCc2cc(Br)[nH]c2C(c2ccccc2)C1 (stereo not drawn) | 132 to 133 °C
41 | CP(=O)(CCC(=O)O)CCC(=O)O | 172 to 174 °C
42 | CS(=O)(=O)c1cc(Br)nc(Br)c1 | 137 to 138 °C

Second part, the compound after the results:

Row | melting point | Compound
43 | 148 to 156 °C | O=C(O)CCn1c(=O)c(=O)[nH]c2cc([N+](=O)[O-])ccc21
44 | 158 to 164 °C | COc1ccc(-c2ccc3c(Cl)c(OC)ccc3c2)cc1
45 | 105 °C | CCn1ncnc1COc1nn2c(-c3ccccc3F)nncc2c1C(C)(C)C
46 | 128 to 130 °C | CCCCOc1cc2c(Cl)c(C#N)cnc2cc1OCCOC
47 | 110 to 113 °C | CCCCc1oc2ccccc2c1C(=O)N(C)Cc1ccc2cc(O)ccc2c1
48 | 74 °C | C=CCOc1cc(N)c([N+](=O)[O-])cc1I
49 | 151 to 153 °C | Cc1ccc(N2CCN(Cc3n[nH]c4ccccc34)CC2)nc1
50 | 191 to 194 °C | CCOc1nc(-c2ccc(F)cc2C)c2c(n1)N(c1c(F)cccc1F)C(=O)NC2
51 | 137 to 138 °C | COc1cccc(CN2C(=O)CCc3cc(O)c(OC)cc32)c1
52 | 243 to 244 °C | CCn1cc(C(=O)NN)c(=O)c2ccc(-c3ccccc3)cc21
53 | 83 to 85 °C | Cc1oc(C)c(C(=O)Nc2ccc(Cl)c(C(=O)OC(C)C)c2)c1C
54 | 161 to 163 °C | COc1ccc(N2CCN(c3c(C)c(C)c4c(c3C)CC(C)(CC#N)O4)CC2)cc1 (stereo not drawn)
55 | 93 to 95 °C | COc1ccc(S(=O)(=O)C2SC(=O)NC2=O)cc1 (stereo not drawn)
56 | 216 to 218 °C | CCCc1nc2c(N)nc3cc(OCc4ccccc4Cl)ccc3c2n1CC(C)C
57 | 153 to 155 °C | CCOc1cccc(-n2cc(-c3ccc4c(c3)OCO4)c3c(N)ncnc32)c1
58 | 225 to 226 °C | Cc1cc(C=CC#N)cc(C(=O)c2c(C(C)C)c(=O)[nH]c(=O)n2CC2CC2)c1
59 | 200 to 201 °C | CCOC(=O)c1sc2nc(SCCCN3CCN(c4ccc5ccccc5n4)CC3)[nH]c(=O)c2c1C
60 | 281 °C | Cc1cc(-c2cnn3c(C(F)(F)F)cc(-c4ccc(Cl)c(Cl)c4)nc23)cc(C)n1
61 | 123 to 126 °C | Cc1ccc(-c2cc(CCCO)nn2-c2ccc(S(N)(=O)=O)cc2)cc1

Row | melting point | Compound
62 | 155 to 159 °C | CCC(=O)Oc1ccc(N=c2scc(-c3ccc(Cl)c(S(=O)(=O)N(C)C)c3)n2C)cc1
63 | 138 to 140 °C | COc1cc([N+](=O)[O-])c2nc(C(F)(F)F)cc(O)c2c1
64 | 148 °C | COc1ccc(C(=O)c2cc3ccccc3o2)c(Cl)c1Cl
65 | 75 to 77 °C | CC(C)(C)c1cc(Cl)c(O)c(C=O)c1
66 | 210 °C | COc1cc2c(c(OC)c1OC)-c1cc(I)c(O)cc1[C@@H](NC(C)=O)CC2
67 | 94 to 99 °C | Cc1cn(COCCOC(=O)c2ccccc2)c(=O)[nH]c1=O
68 | 64 °C | CCOC(=O)c1ccc(CO)cn1
69 | 102 to 104 °C | COC(=O)c1cc2c(nc1C(=O)OC)SCC2
70 | 76 °C | Cc1cc(CCCCCCCOc2ccc(C(=O)OC(C)(C)C)cc2)on1
71 | 252 to 254 °C | Cc1ccc(N2C(=O)C(O)=C(C(=O)c3ccc(C(C)C)cc3)C2c2ccc(C(C)C)cc2)cn1 (stereo not drawn)
72 | 95 to 97 °C | CCCCOC(=O)c1cc(=O)c2c3c(cc(Cl)c2o1)-c1ccc(S(=O)(=O)O)cc1CO3
73 | 110 to 111 °C | CCCc1c(OCc2ccc(CSC#N)cc2)ccc(C(C)=O)c1O
74 | 114 to 116 °C | COc1ccnc(-n2cnc3ccccc32)n1
75 | 196 °C | CCC1c2c(ncn2C)CCN1C(=S)NC(C)C (stereo not drawn)
76 | 58 to 60 °C | CCNC(=O)n1nc(Oc2c(F)cc(C(F)(F)F)cc2Cl)cc1C
77 | 108 to 111 °C | CC1(CNC(=O)OC(C)(C)C)CN(c2cccc(Cl)n2)C1
78 | 132 to 135 °C | CN(C)CCCNC(=O)c1ccc(-c2ccc3nnn(Cc4ccc5ncccc5c4)c3n2)cc1
79 | 85 to 90 °C | CCOC(=O)c1cnc2c(nc(C)n2C)c1Cl
80 | 128 to 131 °C | CC(C)c1nc2cc(COc3ccc(CC4SC(=O)NC4=O)cc3)ccc2o1 (stereo not drawn)

Row | melting point | Compound
81 | 91 to 94 °C | CCOCc1cc(OC)c(-c2ccc(C[C@H](NC(=O)c3c(Cl)cccc3Cl)C(=O)OCC)cc2)c(OC)c1
82 | 170 °C | CC(=O)NCC1CN(c2ccc(-c3cccc(CN)c3)c(F)c2)C(=O)O1 (stereo not drawn)
83 | 231 to 232 °C | CCOCc1nc2c(N)nc3ccc(O)cc3c2n1CC(C)(C)NC(=O)C1CCCCC1
84 | 154 to 157 °C | CCn1cc(C2(c3cccc(-c4cccnc4F)c3)N=C(N)N(C)C2=O)cc1COC (stereo not drawn)
85 | 78 to 80 °C | CCN1C(=O)CCCc2cc(Nc3ncc(Cl)c(Nc4ccccc4OC)n3)c(OC)cc21
86 | 193 to 195 °C | CCN(C=CC(=O)c1cccnc1)CC
87 | 105 to 107 °C | CCCC(=O)C1=C(O)CC(c2cc(C(C)C)no2)CC1=O (stereo not drawn)
88 | 286 to 287 °C | O=C(O)c1ccc(C2=NCCO2)nc1
89 | 144 to 146 °C | Cc1oc(-c2ccc(C(F)(F)F)cc2)nc1CCOc1ccc(CN(O)C(N)=O)cc1F
90 | 201 to 203 °C | O=C(CBr)Nc1ccc(Cl)cc1C(=O)c1ccc(O)cc1
91 | 36 to 38 °C | CCCCCCOc1ccc2c(c1)C=C(C=O)CO2
92 | 136 to 137 °C | CCCc1c(OCCCOc2ccc(C(=O)O)cc2Br)ccc(C(C)=O)c1OC(=O)CC
93 | 149 to 151 °C | CCC(CO)Nc1nc(NCc2ccccc2N)c2ncn(C(C)C)c2n1 (racemic)
94 | 110 to 114 °C | CCSc1nc(NC(C)=O)ccc1F
95 | 45 °C | CCC(CO)Nc1ccc(Cl)cc1[N+](=O)[O-] (stereo not drawn)
96 | 163 to 164 °C | Cc1cn(-c2ccc(N)cc2C(F)(F)F)c(C)n1
97 | 163 to 164 °C | CCOC(=O)c1c(-c2ccccc2)csc1N1C(=O)c2ccccc2C1=O
98 | 142 to 143 °C | N#CC(NC(=O)c1cccn2c(Cl)cnc12)c1ccco1 (stereo not drawn)
